Experimental data published in US8133847B2, “Pyrido[2,3-B]pyrazine derivatives useful as herbicidal compounds” (Syngenta Limited, priority 2006, dated 2012).

How the values were obtained:
Test in all cases: Example B2 herbicidal action, post-emergence, pots in glasshouse
Type in all cases: in vivo
[1] = system: Solanum nigrum (SOLNI); settings: Application post-emergence, evaluated after 13 days
Method: (§1) Seeds of a variety of test species were sown in standard soil in pots. After 8 days cultivation (post-emergence) under controlled conditions in a glasshouse (at 24/16° C., day/night; 14 hours light; 65% humidity), the plants were sprayed with an aqueous spray solution derived from the formulation of the technical active ingredient in acetone/water (50:50) solution containing 0.5% Tween 20 (polyoxyethylene sorbitan monolaurate, CAS RN 9005-64-5). The test plants were then grown in a glasshouse under controlled conditions in a glasshouse (at 24/16° C., day/night; 14 hours light; 65% humidity) and watered twice daily. After 13 days, the test was evaluated (100=total damage to plant; 0=no damage to plant).

[2] = system: Ipomea hederaceae (IPOHE); settings: Application post-emergence, evaluated after 13 days (100=total damage to plant; 0=no damage to plant)
Method: as §1

[3] = system: Setaria faberi (SETFA); settings: Application post-emergence, evaluated after 13 days (100=total damage to plant; 0=no damage to plant)
Method: as §1

[4] = system: Amaranthus retroflexus (AMARE); settings: Application post-emergence, evaluated after 13 days (100=total damage to plant; 0=no damage to plant)
Method: as §1

[5] = system: Echinochloa crusgalli (ECHCG); settings: Application post-emergence, evaluated after 13 days (100=total damage to plant; 0=no damage to plant)
Method: as §1

## O=c1[nH]c2nccnc2c(O)c1-c1ccccc1Br [Compound A24]
[1]
  damage to plant, Solanum nigrum (SOLNI): 9
[2]
  damage to plant, Ipomea hederaceae (IPOHE): 6
[3]
  damage to plant, Setaria faberi (SETFA): 6
[4]
  damage to plant, Amaranthus retroflexus (AMARE): 10
[5]
  damage to plant, Echinochloa crusgalli (ECHCG): 4

## O=c1[nH]c2nccnc2c(O)c1-c1c(Cl)cc(OC(F)(F)F)cc1Cl [Compound A36]
[1]
  damage to plant, Solanum nigrum (SOLNI): 8
[2]
  damage to plant, Ipomea hederaceae (IPOHE): 0
[3]
  damage to plant, Setaria faberi (SETFA): 8
[4]
  damage to plant, Amaranthus retroflexus (AMARE): 7
[5]
  damage to plant, Echinochloa crusgalli (ECHCG): 10

## Cc1ccc(C)c(-c2c(O)c3nccnc3[nH]c2=O)c1 [Compound A37]
[1]
  damage to plant, Solanum nigrum (SOLNI): 6
[2]
  damage to plant, Ipomea hederaceae (IPOHE): 1
[3]
  damage to plant, Setaria faberi (SETFA): 7
[4]
  damage to plant, Amaranthus retroflexus (AMARE): 4
[5]
  damage to plant, Echinochloa crusgalli (ECHCG): 7

## O=c1[nH]c2nccnc2c(O)c1-c1cc(F)ccc1Cl [Compound A38]
[1]
  damage to plant, Solanum nigrum (SOLNI): 9
[2]
  damage to plant, Ipomea hederaceae (IPOHE): 0
[3]
  damage to plant, Setaria faberi (SETFA): 9
[4]
  damage to plant, Amaranthus retroflexus (AMARE): 10
[5]
  damage to plant, Echinochloa crusgalli (ECHCG): 8

## O=c1[nH]c2nccnc2c(O)c1-c1cc(F)c(Cl)cc1Cl [Compound A39]
[1]
  damage to plant, Solanum nigrum (SOLNI): 6
[2]
  damage to plant, Ipomea hederaceae (IPOHE): 0
[3]
  damage to plant, Setaria faberi (SETFA): 7
[4]
  damage to plant, Amaranthus retroflexus (AMARE): 8
[5]
  damage to plant, Echinochloa crusgalli (ECHCG): 8

## O=c1[nH]c2nccnc2c(O)c1-c1c(F)ccc(Br)c1Cl [Compound A40]
[1]
  damage to plant, Solanum nigrum (SOLNI): 8
[2]
  damage to plant, Ipomea hederaceae (IPOHE): 0
[3]
  damage to plant, Setaria faberi (SETFA): 9
[4]
  damage to plant, Amaranthus retroflexus (AMARE): 9
[5]
  damage to plant, Echinochloa crusgalli (ECHCG): 5

## CC(C)(C)C(=O)Oc1c(-c2c(Cl)cc(OC(F)(F)F)cc2Cl)c(=O)[nH]c2nccnc12 [Compound B42]
[1]
  damage to plant, Solanum nigrum (SOLNI): 5
[2]
  damage to plant, Ipomea hederaceae (IPOHE): 0
[3]
  damage to plant, Setaria faberi (SETFA): 8
[4]
  damage to plant, Amaranthus retroflexus (AMARE): 0
[5]
  damage to plant, Echinochloa crusgalli (ECHCG): 1

## CC(C)(C)C(=O)Oc1c(-c2ccc(C(F)(F)F)cc2[N+](=O)[O-])c(=O)[nH]c2nccnc12 [Compound B44]
[1]
  damage to plant, Solanum nigrum (SOLNI): 3
[3]
  damage to plant, Setaria faberi (SETFA): 0
[4]
  damage to plant, Amaranthus retroflexus (AMARE): 7
[5]
  damage to plant, Echinochloa crusgalli (ECHCG): 3

## CC(C)C(=O)Oc1c(-c2cc(F)ccc2Cl)c(=O)[nH]c2nccnc12 [Compound B45]
[1]
  damage to plant, Solanum nigrum (SOLNI): 9
[2]
  damage to plant, Ipomea hederaceae (IPOHE): 0
[3]
  damage to plant, Setaria faberi (SETFA): 8
[4]
  damage to plant, Amaranthus retroflexus (AMARE): 4
[5]
  damage to plant, Echinochloa crusgalli (ECHCG): 8

## CC(C)(C)C(=O)Oc1c(-c2cc(F)ccc2Cl)c(=O)[nH]c2nccnc12 [Compound B46]
[1]
  damage to plant, Solanum nigrum (SOLNI): 10
[2]
  damage to plant, Ipomea hederaceae (IPOHE): 9
[3]
  damage to plant, Setaria faberi (SETFA): 6
[4]
  damage to plant, Amaranthus retroflexus (AMARE): 10
[5]
  damage to plant, Echinochloa crusgalli (ECHCG): 4

## CC(C)C(=O)Oc1c(-c2cc(F)c(Cl)cc2Cl)c(=O)[nH]c2nccnc12 [Compound B47]
[1]
  damage to plant, Solanum nigrum (SOLNI): 3
[2]
  damage to plant, Ipomea hederaceae (IPOHE): 1
[3]
  damage to plant, Setaria faberi (SETFA): 4
[4]
  damage to plant, Amaranthus retroflexus (AMARE): 2
[5]
  damage to plant, Echinochloa crusgalli (ECHCG): 3

## CC(C)(C)C(=O)Oc1c(-c2c(F)ccc(Br)c2Cl)c(=O)[nH]c2nccnc12 [Compound B49]
[1]
  damage to plant, Solanum nigrum (SOLNI): 9
[2]
  damage to plant, Ipomea hederaceae (IPOHE): 8
[3]
  damage to plant, Setaria faberi (SETFA): 7
[4]
  damage to plant, Amaranthus retroflexus (AMARE): 10
[5]
  damage to plant, Echinochloa crusgalli (ECHCG): 3

## CC(C)C(=O)Oc1c(-c2c(F)ccc(Br)c2Cl)c(=O)[nH]c2nccnc12 [Compound B50]
[1]
  damage to plant, Solanum nigrum (SOLNI): 9
[2]
  damage to plant, Ipomea hederaceae (IPOHE): 8
[3]
  damage to plant, Setaria faberi (SETFA): 8
[4]
  damage to plant, Amaranthus retroflexus (AMARE): 10
[5]
  damage to plant, Echinochloa crusgalli (ECHCG): 8

## CC(C)(C)C(=O)Oc1c(-c2ccccc2Br)c(=O)[nH]c2nccnc12 [Compound B51]
[1]
  damage to plant, Solanum nigrum (SOLNI): 7
[2]
  damage to plant, Ipomea hederaceae (IPOHE): 0
[3]
  damage to plant, Setaria faberi (SETFA): 6
[4]
  damage to plant, Amaranthus retroflexus (AMARE): 3
[5]
  damage to plant, Echinochloa crusgalli (ECHCG): 3

## CC(C)(C)C(=O)Oc1c(-c2ccccc2OC(F)F)c(=O)[nH]c2nccnc12 [Compound B59]
[1]
  damage to plant, Solanum nigrum (SOLNI): 2
[2]
  damage to plant, Ipomea hederaceae (IPOHE): 3
[3]
  damage to plant, Setaria faberi (SETFA): 4
[4]
  damage to plant, Amaranthus retroflexus (AMARE): 0
[5]
  damage to plant, Echinochloa crusgalli (ECHCG): 0

## CCn1c(=O)c(-c2c(Cl)cc(C(F)(F)F)cc2Cl)c(OC(=O)C(C)(C)C)c2nccnc21 [Compound C129]
[1]
  damage to plant, Solanum nigrum (SOLNI): 10
[2]
  damage to plant, Ipomea hederaceae (IPOHE): 9
[3]
  damage to plant, Setaria faberi (SETFA): 6
[4]
  damage to plant, Amaranthus retroflexus (AMARE): 10
[5]
  damage to plant, Echinochloa crusgalli (ECHCG): 4

## CC(C)(C)C(=O)Oc1c(-c2c(F)ccc(F)c2Cl)c(=O)n(CC2CCC2)c2nccnc12 [Compound C131]
[1]
  damage to plant, Solanum nigrum (SOLNI): 2
[2]
  damage to plant, Ipomea hederaceae (IPOHE): 0
[3]
  damage to plant, Setaria faberi (SETFA): 0
[4]
  damage to plant, Amaranthus retroflexus (AMARE): 0
[5]
  damage to plant, Echinochloa crusgalli (ECHCG): 0

## Cc1ccc(C)c(-c2c(OC(=O)C(C)C)c3nccnc3n(C)c2=O)c1 [Compound C133]
[1]
  damage to plant, Solanum nigrum (SOLNI): 9
[2]
  damage to plant, Ipomea hederaceae (IPOHE): 3
[3]
  damage to plant, Setaria faberi (SETFA): 4
[4]
  damage to plant, Amaranthus retroflexus (AMARE): 9
[5]
  damage to plant, Echinochloa crusgalli (ECHCG): 6

## Cc1ccc(C)c(-c2c(OC(=O)C(C)(C)C)c3nccnc3n(C)c2=O)c1 [Compound C134]
[1]
  damage to plant, Solanum nigrum (SOLNI): 10
[2]
  damage to plant, Ipomea hederaceae (IPOHE): 6
[3]
  damage to plant, Setaria faberi (SETFA): 2
[4]
  damage to plant, Amaranthus retroflexus (AMARE): 9
[5]
  damage to plant, Echinochloa crusgalli (ECHCG): 0

## CCn1c(=O)c(-c2cc(C)ccc2C)c(OC(=O)C(C)(C)C)c2nccnc21 [Compound C135]
[1]
  damage to plant, Solanum nigrum (SOLNI): 10
[2]
  damage to plant, Ipomea hederaceae (IPOHE): 0
[3]
  damage to plant, Setaria faberi (SETFA): 0
[4]
  damage to plant, Amaranthus retroflexus (AMARE): 8
[5]
  damage to plant, Echinochloa crusgalli (ECHCG): 2

## Cn1c(=O)c(-c2ccccc2I)c(OC(=O)C(C)(C)C)c2nccnc21 [Compound C136]
[1]
  damage to plant, Solanum nigrum (SOLNI): 10
[3]
  damage to plant, Setaria faberi (SETFA): 8
[4]
  damage to plant, Amaranthus retroflexus (AMARE): 9
[5]
  damage to plant, Echinochloa crusgalli (ECHCG): 9

## Cn1c(=O)c(-c2c(Cl)cc(OC(F)(F)F)cc2Cl)c(OC(=O)C(C)(C)C)c2nccnc21 [Compound C138]
[1]
  damage to plant, Solanum nigrum (SOLNI): 8
[2]
  damage to plant, Ipomea hederaceae (IPOHE): 8
[3]
  damage to plant, Setaria faberi (SETFA): 4
[4]
  damage to plant, Amaranthus retroflexus (AMARE): 8
[5]
  damage to plant, Echinochloa crusgalli (ECHCG): 2

## CCn1c(=O)c(-c2c(Cl)cc(OC(F)(F)F)cc2Cl)c(OC(=O)C(C)(C)C)c2nccnc21 [Compound C139]
[1]
  damage to plant, Solanum nigrum (SOLNI): 10
[2]
  damage to plant, Ipomea hederaceae (IPOHE): 10
[3]
  damage to plant, Setaria faberi (SETFA): 10
[4]
  damage to plant, Amaranthus retroflexus (AMARE): 10
[5]
  damage to plant, Echinochloa crusgalli (ECHCG): 10

## Cn1c(=O)c(-c2ccc(C(F)(F)F)cc2[N+](=O)[O-])c(OC(=O)C(C)(C)C)c2nccnc21 [Compound C140]
[1]
  damage to plant, Solanum nigrum (SOLNI): 9
[2]
  damage to plant, Ipomea hederaceae (IPOHE): 2
[3]
  damage to plant, Setaria faberi (SETFA): 0
[4]
  damage to plant, Amaranthus retroflexus (AMARE): 8
[5]
  damage to plant, Echinochloa crusgalli (ECHCG): 3

## CC(C)C(=O)Oc1c(-c2cc(F)ccc2Cl)c(=O)n(C)c2nccnc12 [Compound C142]
[1]
  damage to plant, Solanum nigrum (SOLNI): 10
[2]
  damage to plant, Ipomea hederaceae (IPOHE): 9
[3]
  damage to plant, Setaria faberi (SETFA): 7
[4]
  damage to plant, Amaranthus retroflexus (AMARE): 10
[5]
  damage to plant, Echinochloa crusgalli (ECHCG): 8

## Cn1c(=O)c(-c2cc(F)ccc2Cl)c(OC(=O)C(C)(C)C)c2nccnc21 [Compound C143]
[1]
  damage to plant, Solanum nigrum (SOLNI): 10
[2]
  damage to plant, Ipomea hederaceae (IPOHE): 9
[3]
  damage to plant, Setaria faberi (SETFA): 8
[4]
  damage to plant, Amaranthus retroflexus (AMARE): 10
[5]
  damage to plant, Echinochloa crusgalli (ECHCG): 7

## CC(C)C(=O)Oc1c(-c2c(F)ccc(Br)c2Cl)c(=O)n(C)c2nccnc12 [Compound C144]
[1]
  damage to plant, Solanum nigrum (SOLNI): 10
[2]
  damage to plant, Ipomea hederaceae (IPOHE): 9
[3]
  damage to plant, Setaria faberi (SETFA): 2
[4]
  damage to plant, Amaranthus retroflexus (AMARE): 10
[5]
  damage to plant, Echinochloa crusgalli (ECHCG): 4

## Cn1c(=O)c(-c2c(F)ccc(Br)c2Cl)c(OC(=O)C(C)(C)C)c2nccnc21 [Compound C145]
[1]
  damage to plant, Solanum nigrum (SOLNI): 9
[2]
  damage to plant, Ipomea hederaceae (IPOHE): 6
[3]
  damage to plant, Setaria faberi (SETFA): 0
[4]
  damage to plant, Amaranthus retroflexus (AMARE): 7
[5]
  damage to plant, Echinochloa crusgalli (ECHCG): 1

## Cn1c(=O)c(-c2ccccc2Br)c(OC(=O)C(C)(C)C)c2nccnc21 [Compound C146]
[1]
  damage to plant, Solanum nigrum (SOLNI): 8
[2]
  damage to plant, Ipomea hederaceae (IPOHE): 7
[3]
  damage to plant, Setaria faberi (SETFA): 6
[4]
  damage to plant, Amaranthus retroflexus (AMARE): 9
[5]
  damage to plant, Echinochloa crusgalli (ECHCG): 5

## CCn1c(=O)c(-c2ccc(C(F)(F)F)cc2Br)c(OC(=O)C(C)(C)C)c2nccnc21 [Compound C147]
[1]
  damage to plant, Solanum nigrum (SOLNI): 4
[2]
  damage to plant, Ipomea hederaceae (IPOHE): 2
[3]
  damage to plant, Setaria faberi (SETFA): 0
[4]
  damage to plant, Amaranthus retroflexus (AMARE): 2
[5]
  damage to plant, Echinochloa crusgalli (ECHCG): 0
